Source: ChEMBL document CHEMBL1147166, “Structure-activity relationships of methoctramine-related polyamines as muscarinic antagonist: effect of replacing the inner polymethylene chain with cyclic moieties” (Bioorg Med Chem, 2007)

Columns and labels:
[1] = target: Muscarinic acetylcholine receptor M3 (Cavia porcellus) (UniProt Q8VH26); test: Antagonist potency at muscarinic receptor M3 in guinea pig ileum; format: functional, tissue-based
[2] = target: T1, Muscarinic acetylcholine receptor M2 (Homo sapiens) (UniProt P08172); test: Antagonist potency at muscarinic receptor M2 in guinea pig atrium; format: functional, tissue-based; conditions: Cavia porcellus; Cardiac atrium; target entry is the homologue from another species
T1 sequence (whole entry): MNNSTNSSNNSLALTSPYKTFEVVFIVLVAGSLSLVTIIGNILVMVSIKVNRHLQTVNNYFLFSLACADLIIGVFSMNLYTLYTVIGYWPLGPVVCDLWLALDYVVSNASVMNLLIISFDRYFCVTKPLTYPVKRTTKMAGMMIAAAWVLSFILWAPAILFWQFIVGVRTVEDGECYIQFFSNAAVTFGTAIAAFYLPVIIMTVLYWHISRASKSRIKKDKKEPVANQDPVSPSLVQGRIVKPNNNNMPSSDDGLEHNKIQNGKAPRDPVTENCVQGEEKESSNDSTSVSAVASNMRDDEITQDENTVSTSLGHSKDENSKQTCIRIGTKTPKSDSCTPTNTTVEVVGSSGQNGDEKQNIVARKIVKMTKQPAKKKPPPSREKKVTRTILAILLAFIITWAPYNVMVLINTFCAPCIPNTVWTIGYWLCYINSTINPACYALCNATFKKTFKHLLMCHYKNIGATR

Mus musculus [3] = test: Antinociceptive activity in mouse assessed as licking latency at 0.03 ug, icv after 60 mins by hot plate method; format: functional
Mus musculus [4] = test: Antinociceptive activity in mouse assessed as licking latency at 1.0 ug, icv after 45 mins by hot plate method; format: functional
Mus musculus [5] = test: Antinociceptive activity in mouse assessed as licking latency at 0.01 ug, icv after 45 mins by hot plate method; format: functional
[6] = target: Muscarinic acetylcholine receptor M3 (Homo sapiens, UniProt P20309); test: Displacement of [3H] N-methyl-scopolamine chloride from human muscarinic receptor M3 expressed in CHO cells; format: cell-based
Mus musculus [7] = test: Antinociceptive activity in mouse assessed as licking latency at 0.3 ug, icv after 30 mins by hot plate method; format: functional
[8] = target: T2, Muscarinic acetylcholine receptor M5 (Homo sapiens, UniProt P08912); test: Displacement of [3H] N-methyl-scopolamine chloride from human muscarinic receptor M5 expressed in CHO cells; format: cell-based
T2 sequence (P08912 whole entry): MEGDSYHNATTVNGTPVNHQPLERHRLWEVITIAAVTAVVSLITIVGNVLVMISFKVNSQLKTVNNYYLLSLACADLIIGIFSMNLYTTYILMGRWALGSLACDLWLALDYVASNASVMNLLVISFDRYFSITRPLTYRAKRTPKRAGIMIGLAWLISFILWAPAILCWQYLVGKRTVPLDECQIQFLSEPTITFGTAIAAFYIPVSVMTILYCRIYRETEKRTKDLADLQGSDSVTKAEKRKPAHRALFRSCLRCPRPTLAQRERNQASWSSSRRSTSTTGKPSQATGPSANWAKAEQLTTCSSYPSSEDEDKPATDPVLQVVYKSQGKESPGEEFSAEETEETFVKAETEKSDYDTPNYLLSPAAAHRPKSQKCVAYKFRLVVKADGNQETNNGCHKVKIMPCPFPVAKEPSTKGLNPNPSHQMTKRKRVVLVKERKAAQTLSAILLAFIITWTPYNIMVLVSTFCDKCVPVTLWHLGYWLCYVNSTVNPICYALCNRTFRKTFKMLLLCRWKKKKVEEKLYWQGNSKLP

Mus musculus [9] = test: Antinociceptive activity in mouse assessed as licking latency at 0.1 ug, icv after 60 mins by hot plate method; format: functional
Mus musculus [10] = test: Antinociceptive activity in mouse assessed as licking latency at 10 ug, icv after 15 mins by hot plate method; format: functional
Mus musculus [11] = test: Antinociceptive activity in mouse assessed as licking latency at 0.03 ug, icv after 45 mins by hot plate method; format: functional
Mus musculus [12] = test: Antinociceptive activity in mouse assessed as licking latency at 0.3 ug, icv after 15 mins by hot plate method; format: functional
Mus musculus [13] = test: Antinociceptive activity in mouse assessed as licking latency at 0.01 ug, icv after 15 mins by hot plate method; format: functional
Mus musculus [14] = test: Antinociceptive activity in mouse assessed as licking latency at 0.1 ug, icv after 30 mins by hot plate method; format: functional
Mus musculus [15] = test: Antinociceptive activity in mouse assessed as licking latency at 10 ug, icv after 60 mins by hot plate method; format: functional
Mus musculus [16] = test: Antinociceptive activity in mouse assessed as licking latency at 10 ug, icv after 30 mins by hot plate method; format: functional
Cholinesterase = Cholinesterase (Homo sapiens, UniProt P06276); test: Inhibition of human serum recombinant BChE after 20 mins
[17] = target: T3, Muscarinic acetylcholine receptor M1 (Homo sapiens, UniProt P11229); test: Displacement of [3H] N-methyl-scopolamine chloride from human muscarinic receptor M1 expressed in CHO cells; format: cell-based
T3 sequence (P11229 whole entry): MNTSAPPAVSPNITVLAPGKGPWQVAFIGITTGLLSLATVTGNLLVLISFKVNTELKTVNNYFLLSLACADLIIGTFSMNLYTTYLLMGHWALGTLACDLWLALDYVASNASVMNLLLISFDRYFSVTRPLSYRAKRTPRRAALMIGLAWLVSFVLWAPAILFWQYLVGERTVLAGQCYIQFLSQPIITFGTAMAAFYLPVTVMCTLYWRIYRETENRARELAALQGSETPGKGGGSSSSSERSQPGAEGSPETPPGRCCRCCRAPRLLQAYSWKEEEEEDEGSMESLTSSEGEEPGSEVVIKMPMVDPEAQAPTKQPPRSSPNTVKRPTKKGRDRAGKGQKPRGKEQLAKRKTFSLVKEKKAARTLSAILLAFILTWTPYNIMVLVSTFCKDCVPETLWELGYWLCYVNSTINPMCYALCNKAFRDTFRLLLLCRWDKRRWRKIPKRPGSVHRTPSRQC

Mus musculus [18] = test: Antinociceptive activity in mouse assessed as licking latency at 0.3 ug, icv after 60 mins by hot plate method; format: functional
Mus musculus [19] = test: Antinociceptive activity in mouse assessed as licking latency at 0.1 ug, icv after 45 mins by hot plate method; format: functional
Mus musculus [20] = test: Antinociceptive activity in mouse assessed as licking latency at 1.0 ug, icv after 15 mins by hot plate method; format: functional
Mus musculus [21] = test: Antinociceptive activity in mouse assessed as licking latency at 1.0 ug, icv after 60 mins by hot plate method; format: functional
Mus musculus [22] = test: Antinociceptive activity in mouse assessed as licking latency at 0.03 ug, icv after 30 mins by hot plate method; format: functional

Cholinesterase, sequence (P06276 whole entry): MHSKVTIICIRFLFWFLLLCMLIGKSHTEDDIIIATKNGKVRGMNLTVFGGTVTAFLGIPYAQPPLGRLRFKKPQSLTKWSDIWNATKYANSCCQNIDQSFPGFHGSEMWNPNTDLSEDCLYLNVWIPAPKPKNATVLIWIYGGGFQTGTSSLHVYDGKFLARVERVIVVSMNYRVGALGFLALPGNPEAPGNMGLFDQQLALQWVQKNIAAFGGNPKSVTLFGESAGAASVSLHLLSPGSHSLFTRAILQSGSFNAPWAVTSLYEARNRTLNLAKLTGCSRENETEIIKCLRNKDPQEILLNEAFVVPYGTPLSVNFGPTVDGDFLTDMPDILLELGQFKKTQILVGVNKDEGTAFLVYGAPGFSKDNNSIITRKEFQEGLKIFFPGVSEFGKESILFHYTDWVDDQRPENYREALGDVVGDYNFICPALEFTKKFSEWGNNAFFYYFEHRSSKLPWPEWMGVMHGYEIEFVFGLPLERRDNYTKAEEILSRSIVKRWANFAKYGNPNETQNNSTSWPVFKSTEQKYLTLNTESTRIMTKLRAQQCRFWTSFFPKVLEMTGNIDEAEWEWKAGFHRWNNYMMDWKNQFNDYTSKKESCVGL
Muscarinic acetylcholine receptor M3, sequence (P20309 whole entry): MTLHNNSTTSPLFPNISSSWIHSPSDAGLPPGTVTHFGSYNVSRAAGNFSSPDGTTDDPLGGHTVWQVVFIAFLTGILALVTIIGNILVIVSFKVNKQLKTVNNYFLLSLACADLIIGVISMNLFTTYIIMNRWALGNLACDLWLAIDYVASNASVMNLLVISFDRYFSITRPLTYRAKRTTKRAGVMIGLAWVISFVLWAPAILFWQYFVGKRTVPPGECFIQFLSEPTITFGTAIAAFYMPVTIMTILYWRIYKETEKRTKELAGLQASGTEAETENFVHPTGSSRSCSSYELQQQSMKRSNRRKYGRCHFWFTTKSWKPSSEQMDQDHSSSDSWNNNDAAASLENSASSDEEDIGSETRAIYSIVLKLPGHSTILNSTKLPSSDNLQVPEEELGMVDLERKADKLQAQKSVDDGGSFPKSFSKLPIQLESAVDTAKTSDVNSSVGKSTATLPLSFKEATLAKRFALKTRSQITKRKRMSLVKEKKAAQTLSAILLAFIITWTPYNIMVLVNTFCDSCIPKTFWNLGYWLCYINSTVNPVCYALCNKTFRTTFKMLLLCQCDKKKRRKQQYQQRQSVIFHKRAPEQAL
Muscarinic acetylcholine receptor M3 (Cavia porcellus), sequence (Q8VH26 1-587): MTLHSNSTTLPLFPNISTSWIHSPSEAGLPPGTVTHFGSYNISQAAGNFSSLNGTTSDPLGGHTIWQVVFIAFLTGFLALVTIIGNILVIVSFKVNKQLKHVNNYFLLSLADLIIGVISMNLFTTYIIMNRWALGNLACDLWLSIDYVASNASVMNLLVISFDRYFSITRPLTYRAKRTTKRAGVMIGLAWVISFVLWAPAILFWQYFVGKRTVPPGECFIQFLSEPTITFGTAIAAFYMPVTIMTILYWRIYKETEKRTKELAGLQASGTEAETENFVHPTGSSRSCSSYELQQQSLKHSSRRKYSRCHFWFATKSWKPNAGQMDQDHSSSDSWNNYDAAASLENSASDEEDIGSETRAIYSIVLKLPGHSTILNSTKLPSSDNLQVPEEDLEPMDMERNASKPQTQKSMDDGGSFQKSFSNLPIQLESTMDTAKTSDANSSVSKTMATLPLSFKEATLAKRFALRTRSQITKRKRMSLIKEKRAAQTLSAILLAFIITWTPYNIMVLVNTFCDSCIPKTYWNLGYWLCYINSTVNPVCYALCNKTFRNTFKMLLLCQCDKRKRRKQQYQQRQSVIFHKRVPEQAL

SMILES: COc1ccccc1CNCCCCCCN1CCC(CCC2CCN(CCCCCCNCc3ccccc3OC)CC2)CC1
- pKb [1]: 6.58
- pKb [2]: 7.98
- Time (Mus musculus [3]): 16.1 s
- Time (Mus musculus [4]): 18.5 s
- Time (Mus musculus [5]): 18.6 s
- Ki [6]: 214 nM
- Time (Mus musculus [7]): 25 s
- Ki [8]: 170 nM
- Time (Mus musculus [9]): 18.6 s
- Time (Mus musculus [10]): 13.3 s
- Time (Mus musculus [11]): 18.3 s
- Time (Mus musculus [12]): 23.8 s
- Time (Mus musculus [13]): 15.9 s
- Time (Mus musculus [14]): 24.5 s
- Time (Mus musculus [15]): 18.3 s
- Time (Mus musculus [16]): 15.6 s
- IC50 (Cholinesterase): 10.5 µM
- Ki [17]: 20 nM
- Time (Mus musculus [18]): 15.7 s
- Time (Mus musculus [19]): 22.1 s
- Time (Mus musculus [20]): 19.3 s
- Time (Mus musculus [21]): 19.5 s
- Time (Mus musculus [22]): 19.4 s
